According to patent US7067552B2, “Radiosensitizing taxanes and their pharmaceutical preparations” (Florida State University, priority 1995, dated 2006):
Values joined by “and” are separate entries in the source; they are usually repeats but may differ in a detail not shown here. Identical values can stand only once. “Also recorded” adds a separate entry of the source. Like-named read-outs stand apart in the source and are kept apart here.

Assays:
[1] = test system: mouse mammary adenocarcinoma (MTG-B); assay: In vivo chemotherapeutic activity in MTG-B tumor bearing mice; parameters: species or system C3H/Hej mice
C3H/HeJ mice [2] = settings: mouse, in vivo
MTG-B tumor = type: in vivo, C3H/Hej mice
[3] = In vivo drug toxicity (acute toxicity); settings: C3H/HeJ, mouse, in vivo, ip
CHO cells = assay: In vitro chemotherapeutic radiosensitization, CHO cells; type: cell-based, Chinese hamster; settings: for radiosensitization of CHO cells (in words): different radiation doses; for sensitizer enhancement ratio (SER): irradiated after two hours incubation
HCT-116 cells = assay: In vitro chemotherapeutic radiosensitization, HCT-116 cells; type: cell-based, human; settings: for radiosensitization of HCT-116 cells (in words): different radiation doses; for sensitizer enhancement ratio (SER): irradiated after two hours incubation
C3H/HeJ mice [4] = assay: In vivo drug toxicity (acute toxicity); settings: for LD50/5: C3H/HeJ mice
[5] = test system: Chinese hamster ovary (CHO) cells; assay: In vitro chemotherapeutic activity, colony forming assay, CHO cells; type: cell-based; settings: at the 50% survival level; 37° C. for 24 hours
Experimental: (§1) 4.1. In vitro chemotherapeutic activity. Chinese hamster ovary (CHO) and human colon carcinoma (HCT-116) cells were treated with different concentrations of taxol, taxoltere metro, or taxoltere p-nip at 37° C. for 24 hours. Cell survival was evaluated by the colony forming assay.

MTG-B mammary tumors = test system: MTG-B mammary tumors; parameters: species or system mice; settings: mouse, in vivo, ip
[6] = test system: human colon carcinoma (HCT-116) cells; assay: In vitro chemotherapeutic activity, colony forming assay, HCT-116 cells; type: cell-based; settings: at the 1% survival level; 37° C. for 24 hours
Experimental: as §1

Row | Compound | radiosensitization of CHO cells (in words) (CHO cells) | radiosensitization of HCT-116 cells (in words) (HCT-116 cells) | increase of survival time / life span ([1]; mouse, in vivo) | survival time ([1]; mouse, in vivo) | times more effective than taxol under equitoxic conditions ([1]; mouse, in vivo) | tumor doubling times (in words) ([1]; mouse, in vivo) | tumor doubling time (TDT) (MTG-B tumor; mouse, in vivo, ip) | LD50/5 (C3H/HeJ mice [4]; i.p.) | times more effective than taxol in killing CHO cells [5] | times more effective than taxol in killing HCT-116 cells [6] | other results
1 | CC(=O)O[C@H]1C(=O)[C@@]2(C)[C@H]([C@H](OC(=O)c3ccccc3)[C@]3(O)C[C@H](OC(=O)[C@H](O)[C@@H](NC(=O)c4ccccc4)c4ccccc4)C(C)=C1C3(C)C)[C@]1(OC(C)=O)CO[C@@H]1C[C@@H]2O [taxol, reference compound] | does not | does not |  |  |  |  |  |  |  |  | survival time ([1]; 40% of the LD50/5 dose, MTG-B tumor-bearing mice, control 13 days): 17 days; increase of survival time / life span ([1]; 40% of the LD50/5 dose, versus control 13 days): 31%; Severe toxic symptoms (constriction of pupils, rough hair) (C3H/HeJ mice [2]): observed; tumor doubling time (TDT) (MTG-B tumor; single dose i.p., 40% of LD50/5, drug alone, control 3.5 days): 14.5 days; tumor doubling time (TDT) (MTG-B tumor; single dose i.p., 40% of LD50/5, plus 22 Gy Xray one day later, 22 Gy alone 8.5 days): 19.5 days; LD50 at 5 days [3]: 141 mg/kg
2 | N-debenzoyl-N-(t-butylcarbamoyl)-3′-desphenyl-3′-(4-nitrophenyl) taxol [taxoltere p-nip] | strongly radiosensitize | strongly radiosensitize | 1015% | 145 days | 33 times | even further extended; also recorded: again greatly extended | 36.5 days and 65 days | 79.13 mg/kg | about 45 times | about 30 times | tumor doubling time (MTG-B tumor; mouse, in vivo, iv): 52 days; LD50/5 (C3H/HeJ mice [4]; i.v.): 134.16 mg/kg; sensitizer enhancement ratio (SER) (CHO cells; concentration not given): 1.6; cure rate (MTG-B mammary tumors): 40% and 75%; sensitizer enhancement ratio (SER) (HCT-116 cells; concentration not given): 1.5
3 | N-debenzoyl-N-(t-butylcarbamoyl)-7-(metronidazoleoxycarbonyl) taxol [taxoltere metro] | strongly radiosensitize | strongly radiosensitize | 123% | 29 days | 4 times | again greatly extended | 20.5 days and 29.5 days | 249.67 mg/kg | about 15 times | about 10 times | Severe toxic symptoms (constriction of pupils, rough hair) (C3H/HeJ mice [4]; 24 hours after drug administration, high drug dose levels): not; sensitizer enhancement ratio (SER) (CHO cells; 100 nM): 2.3; sensitizer enhancement ratio (SER) (HCT-116 cells; 10 nM): 1.2
